What was measured:
Test in all cases: Kinase panel profiling at 1 µmol/L (MSA or IMAP), percentage inhibition
Assay type in all cases: biochemical
[1] = biological target: panel of 255 wild-type kinases (Homo sapiens, UniProt O60674); conditions: kinase JAK2; 1 µmol/L single concentration; read-out: %-inhibition at 1 µmol/L, JAK2
[2] = biological target: T1, panel of 255 wild-type kinases (Homo sapiens, UniProt P29323); conditions: kinase EPHB2; 1 µmol/L single concentration; read-out: %-inhibition at 1 µmol/L, EPHB2
T1 sequence (P29323 19-1055): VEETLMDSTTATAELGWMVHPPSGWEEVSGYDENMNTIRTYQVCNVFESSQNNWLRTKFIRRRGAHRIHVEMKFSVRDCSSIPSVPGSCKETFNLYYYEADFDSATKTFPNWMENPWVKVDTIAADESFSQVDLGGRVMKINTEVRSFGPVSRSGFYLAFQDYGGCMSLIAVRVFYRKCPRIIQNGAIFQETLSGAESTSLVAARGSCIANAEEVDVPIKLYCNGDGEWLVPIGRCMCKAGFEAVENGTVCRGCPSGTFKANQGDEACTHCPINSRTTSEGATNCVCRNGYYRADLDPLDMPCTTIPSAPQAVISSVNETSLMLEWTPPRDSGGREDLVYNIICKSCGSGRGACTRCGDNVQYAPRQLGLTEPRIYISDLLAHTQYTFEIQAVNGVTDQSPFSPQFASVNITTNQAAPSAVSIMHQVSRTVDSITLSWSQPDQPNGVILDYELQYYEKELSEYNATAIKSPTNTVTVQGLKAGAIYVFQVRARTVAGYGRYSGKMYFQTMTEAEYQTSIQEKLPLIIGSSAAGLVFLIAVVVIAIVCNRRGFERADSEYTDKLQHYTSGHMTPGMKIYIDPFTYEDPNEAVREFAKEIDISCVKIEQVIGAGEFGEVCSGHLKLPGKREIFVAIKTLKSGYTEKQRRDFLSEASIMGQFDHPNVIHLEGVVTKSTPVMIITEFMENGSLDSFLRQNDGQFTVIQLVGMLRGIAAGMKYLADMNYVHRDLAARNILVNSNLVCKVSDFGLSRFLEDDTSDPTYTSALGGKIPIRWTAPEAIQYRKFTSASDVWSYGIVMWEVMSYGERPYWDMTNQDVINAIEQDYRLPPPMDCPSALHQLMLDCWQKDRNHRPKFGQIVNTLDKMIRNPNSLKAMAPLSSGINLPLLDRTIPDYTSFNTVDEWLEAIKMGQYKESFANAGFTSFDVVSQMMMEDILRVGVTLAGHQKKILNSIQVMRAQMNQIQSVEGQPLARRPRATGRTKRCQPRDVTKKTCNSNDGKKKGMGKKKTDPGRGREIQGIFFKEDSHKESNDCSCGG

[3] = biological target: panel of 255 wild-type kinases (Homo sapiens, UniProt P29376); conditions: kinase LTK; 1 µmol/L single concentration; read-out: %-inhibition at 1 µmol/L, LTK
[4] = biological target: panel of 255 wild-type kinases (Homo sapiens, UniProt P29597); conditions: kinase TYK2; 1 µmol/L single concentration; read-out: %-inhibition at 1 µmol/L, TYK2
[5] = biological target: panel of 255 wild-type kinases (Homo sapiens, UniProt P42684); conditions: ARG kinase assay; 1 µmol/L single concentration; read-out: %-inhibition ARG
[6] = biological target: panel of 255 wild-type kinases (Homo sapiens, UniProt P45984); conditions: kinase JNK2; 1 µmol/L single concentration; read-out: %-inhibition at 1 µmol/L, JNK2
[7] = biological target: panel of 255 wild-type kinases (Homo sapiens, UniProt P49841); conditions: kinase GSK3β; 1 µmol/L single concentration
[8] = biological target: panel of 255 wild-type kinases (Homo sapiens, UniProt Q13177); conditions: PAK2; 1 µmol/L single concentration; read-out: %-inhibition, PAK2
[9] = biological target: T2, panel of 255 wild-type kinases (Homo sapiens, UniProt Q8IWQ3); conditions: BRSK2 kinase assay; 1 µmol/L single concentration; read-out: %-inhibition BRSK2
T2 sequence (Q8IWQ3 1-736): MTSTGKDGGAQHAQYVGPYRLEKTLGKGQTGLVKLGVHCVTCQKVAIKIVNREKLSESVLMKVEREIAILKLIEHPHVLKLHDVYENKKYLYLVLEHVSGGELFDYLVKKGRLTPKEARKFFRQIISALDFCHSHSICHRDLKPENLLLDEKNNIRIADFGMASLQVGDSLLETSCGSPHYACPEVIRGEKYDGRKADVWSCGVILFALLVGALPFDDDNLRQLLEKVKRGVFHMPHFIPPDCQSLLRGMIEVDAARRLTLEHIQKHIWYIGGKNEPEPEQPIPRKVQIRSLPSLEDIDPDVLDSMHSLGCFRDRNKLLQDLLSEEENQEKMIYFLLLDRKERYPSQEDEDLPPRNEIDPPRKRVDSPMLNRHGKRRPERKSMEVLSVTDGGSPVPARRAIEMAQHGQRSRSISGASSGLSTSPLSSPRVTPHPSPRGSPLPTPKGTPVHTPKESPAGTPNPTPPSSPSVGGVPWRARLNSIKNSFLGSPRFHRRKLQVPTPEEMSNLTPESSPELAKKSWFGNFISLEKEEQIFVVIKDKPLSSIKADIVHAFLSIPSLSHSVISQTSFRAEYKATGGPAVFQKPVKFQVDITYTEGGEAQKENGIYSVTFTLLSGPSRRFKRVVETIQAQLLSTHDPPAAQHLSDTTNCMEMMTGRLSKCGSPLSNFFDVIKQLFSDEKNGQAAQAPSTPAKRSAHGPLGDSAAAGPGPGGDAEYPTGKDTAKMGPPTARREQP

[10] = biological target: panel of 255 wild-type kinases (Homo sapiens, UniProt Q8N4C8); conditions: MINK; 1 µmol/L single concentration; read-out: %-inhibition, MINK
[11] = biological target: panel of 255 wild-type kinases (Homo sapiens, UniProt Q9UPE1); conditions: MSSK1; 1 µmol/L single concentration; read-out: %-inhibition, MSSK1

Row | SMILES | inhibition at 1 µM [1] [%] | inhibition at 1 µM [2] [%] | inhibition at 1 µM [3] [%] | inhibition at 1 µM [4] [%] | inhibition at 1 µM [5] [%] | inhibition at 1 µM [6] [%] | inhibition at 1 µM [7] [%] | inhibition at 1 µM [8] [%] | inhibition at 1 µM [9] [%] | inhibition at 1 µM [10] [%] | inhibition at 1 µM [11] [%]
1 | FC(F)(F)c1ccc(CNc2ccc(Cc3c[nH]c4ncc(Cl)cc34)cn2)cn1 [pexidartinib] | 35 | 8 | 10 | 19 | 7 | 2.5 | 4.44 | -2.4 | 5.28 | 9 | -4
2 | CO[C@]1(C(=O)N[C@@H](C)c2ccc(-n3cc(F)cn3)nc2)CC[C@H](c2nc(C)cc(Nc3cc(C)[nH]n3)n2)CC1 [pralsetinib] | 98 | 35 | 55 | 91 | 38 | 5 | 51 | 16 | 14 | -3.43 | -6
3 | CCn1c(=O)c(-c2cc(NC(=O)Nc3ccccc3)c(F)cc2Br)cc2cnc(NC)cc21 [ripretinib] | 63 | 75 | 0.637 | 4.46 | 56 | 35 | -0.349 | 4.69 | 8 | 3.55 | -0.94
4 | COc1ccc(CN2C3CC2CN(c2ccc(-c4cc(OCC(C)(C)O)cn5ncc(C#N)c45)cn2)C3)cn1 [selpercatinib] | 27 | 64 | -3 | 3.39 | 10 | -1.07 | 40 | 5 | 35 | -5.33 | 2.44
5 | Cn1cnc2c(F)c(Nc3ccc(Br)cc3Cl)c(C(=O)NOCCO)cc21 [selumetinib] | -0.0152 | -0.445 | 53 | -3 | 1.6 | -2.13 | -8 | -3.7 | 4 | -4.5 | -5.32
6 | Cc1cc(Nc2ncnc3ccc(NC4=NC(C)(C)CO4)cc23)ccc1Oc1ccn2ncnc2c1 [tucatinib] | 4.51 | 2.14 | 49 | 4.71 | 3.73 | 1.47 | 8 | -1.88 | 7 | -4.35 | 1.14
7 | C=CC(=O)N1CCC([C@@H]2CCNc3c(C(N)=O)c(-c4ccc(Oc5ccccc5)cc4)nn32)CC1 [zanubrutinib] | -0.375 | -1.07 | 0.209 | -2.32 | -3.68 | -1.18 | -9 | 10 | 0.0746 | -1.27 | -2.31

Source: article PMC9516332 (Frontiers in Oncology, 2022)
